Experimental data: ChEMBL document CHEMBL2413072, “Synthesis and in vitro anticancer studies of novel C-2 arylidene congeners of lantadenes” (2013)

What was measured:
Type in all cases: functional
[1] = tested on: UACC-257; test: Growth inhibition of human UACC257 cells assessed as cell growth at 10 uM by sulforhodamine B assay; settings: read-out: Activity
[2] = tested on: 786-0; test: Growth inhibition of human 786-0 cells assessed as cell growth at 10 uM by sulforhodamine B assay; settings: read-out: Activity
[3] = tested on: T47D; test: Growth inhibition of human T47D cells assessed as growth inhibition at 10 uM by sulforhodamine B assay; settings: read-out: GI
[4] = tested on: SK-MEL-2; test: Growth inhibition of human SK-MEL-2 cells assessed as growth inhibition at 10 uM by sulforhodamine B assay; settings: read-out: GI
[5] = tested on: SNB-75; test: Growth inhibition of human SNB75 cells assessed as cell growth at 10 uM by sulforhodamine B assay; settings: read-out: Activity
[6] = tested on: SK-MEL-5; test: Growth inhibition of human SK-MEL-5 cells assessed as growth inhibition at 10 uM by sulforhodamine B assay; settings: read-out: GI
[7] = Growth inhibition of human NCI-ADR-RES cells assessed as growth inhibition at 10 uM by sulforhodamine B assay; settings: read-out: GI
[8] = tested on: HCT-116; test: Growth inhibition of human HCT116 cells assessed as cell growth at 10 uM by sulforhodamine B assay; settings: read-out: Activity
[9] = tested on: COLO 205; test: Growth inhibition of human COLO205 cells assessed as growth inhibition at 10 uM by sulforhodamine B assay; settings: read-out: GI
[10] = tested on: OVCAR-8; test: Growth inhibition of human OVCAR8 cells assessed as growth inhibition at 10 uM by sulforhodamine B assay; settings: read-out: GI
[11] = tested on: UO-31; test: Growth inhibition of human UO31 cells assessed as cell growth at 10 uM by sulforhodamine B assay; settings: read-out: Activity
[12] = tested on: SR; test: Growth inhibition of human SR cells assessed as cell growth at 10 uM by sulforhodamine B assay; settings: read-out: Activity
[13] = tested on: OVCAR-4; test: Growth inhibition of human OVCAR4 cells assessed as cell growth at 10 uM by sulforhodamine B assay; settings: read-out: Activity
[14] = tested on: RXF 393; test: Growth inhibition of human RXF393 cells assessed as cell growth at 10 uM by sulforhodamine B assay; settings: read-out: Activity
[15] = tested on: U-251; test: Growth inhibition of human U251 cells assessed as growth inhibition at 10 uM by sulforhodamine B assay; settings: read-out: GI
[16] = tested on: PC-3; test: Growth inhibition of human PC3 cells assessed as cell growth at 10 uM by sulforhodamine B assay; settings: read-out: Activity
[17] = tested on: SNB-19; test: Growth inhibition of human SNB19 cells assessed as growth inhibition at 10 uM by sulforhodamine B assay; settings: read-out: GI
[18] = tested on: DU-145; test: Growth inhibition of human DU145 cells assessed as cell growth at 10 uM by sulforhodamine B assay; settings: read-out: Activity
[19] = tested on: NCI-H460; test: Growth inhibition of human NCI-H460 cells assessed as cell growth at 10 uM by sulforhodamine B assay; settings: read-out: Activity
[20] = tested on: NCI-H322M; test: Growth inhibition of human NCI-H322M cells assessed as cell growth at 10 uM by sulforhodamine B assay; settings: read-out: Activity
[21] = Growth inhibition of human Hs 578T cells assessed as cell growth at 10 uM by sulforhodamine B assay; settings: read-out: Activity
[22] = tested on: ACHN; test: Growth inhibition of human ACHN cells assessed as growth inhibition at 10 uM by sulforhodamine B assay; settings: read-out: GI
[23] = tested on: HT-29; test: Growth inhibition of human HT-29 cells assessed as growth inhibition at 10 uM by sulforhodamine B assay; settings: read-out: GI
[24] = Growth inhibition of human Hs 578T cells assessed as growth inhibition at 10 uM by sulforhodamine B assay; settings: read-out: GI
[25] = Growth inhibition of human HCC2998 cells assessed as growth inhibition at 10 uM by sulforhodamine B assay; settings: HCC 2998, read-out: GI
[26] = tested on: HL-60(TB); test: Growth inhibition of human HL-60(TB) cells assessed as growth inhibition at 10 uM by sulforhodamine B assay; settings: read-out: GI
[27] = tested on: HOP-62; test: Growth inhibition of human HOP62 cells assessed as cell growth at 10 uM by sulforhodamine B assay; settings: read-out: Activity
[28] = tested on: OVCAR-5; test: Growth inhibition of human OVCAR5 cells assessed as growth inhibition at 10 uM by sulforhodamine B assay; settings: read-out: GI
[29] = tested on: K562; test: Growth inhibition of human K562 cells assessed as growth inhibition at 10 uM by sulforhodamine B assay; settings: read-out: GI
[30] = tested on: HCT-15; test: Growth inhibition of human HCT15 cells assessed as growth inhibition at 10 uM by sulforhodamine B assay; settings: read-out: GI
[31] = tested on: LOX IMVI; test: Growth inhibition of human LOXIMVI cells assessed as growth inhibition at 10 uM by sulforhodamine B assay; settings: read-out: GI
[32] = tested on: SNB-75; test: Growth inhibition of human SNB75 cells assessed as growth inhibition at 10 uM by sulforhodamine B assay; settings: read-out: GI
[33] = tested on: SF-295; test: Growth inhibition of human SF295 cells assessed as growth inhibition at 10 uM by sulforhodamine B assay; settings: read-out: GI
[34] = tested on: CCRF-CEM; test: Growth inhibition of human CCRF-CEM cells assessed as cell growth at 10 uM by sulforhodamine B assay; settings: read-out: Activity
[35] = tested on: RXF 393; test: Growth inhibition of human RXF393 cells assessed as growth inhibition at 10 uM by sulforhodamine B assay; settings: read-out: GI
[36] = tested on: BT-549; test: Growth inhibition of human BT549 cells assessed as growth inhibition at 10 uM by sulforhodamine B assay; settings: read-out: GI
[37] = tested on: A549; test: Growth inhibition of human A549/ATCC cells assessed as growth inhibition at 10 uM by sulforhodamine B assay; settings: read-out: GI
[38] = tested on: MDA-MB-231; test: Growth inhibition of human MDA-MB-231 cells assessed as growth inhibition at 10 uM by sulforhodamine B assay; settings: read-out: GI
[39] = tested on: PC-3; test: Growth inhibition of human PC3 cells assessed as growth inhibition at 10 uM by sulforhodamine B assay; settings: read-out: GI
[40] = tested on: A498; test: Growth inhibition of human A498 cells assessed as cell growth at 10 uM by sulforhodamine B assay; settings: read-out: Activity
[41] = tested on: CAKI-1; test: Growth inhibition of human CAKI-1 cells assessed as cell growth at 10 uM by sulforhodamine B assay; settings: read-out: Activity
[42] = tested on: MDA-MB-468; test: Growth inhibition of human MDA-MB-468 cells assessed as growth inhibition at 10 uM by sulforhodamine B assay; settings: read-out: GI
[43] = tested on: LOX IMVI; test: Growth inhibition of human LOXIMVI cells assessed as cell growth at 10 uM by sulforhodamine B assay; settings: read-out: Activity
[44] = tested on: SR; test: Growth inhibition of human SR cells assessed as growth inhibition at 10 uM by sulforhodamine B assay; settings: read-out: GI
[45] = tested on: OVCAR-4; test: Growth inhibition of human OVCAR4 cells assessed as growth inhibition at 10 uM by sulforhodamine B assay; settings: read-out: GI
[46] = tested on: SF-295; test: Growth inhibition of human SF295 cells assessed as cell growth at 10 uM by sulforhodamine B assay; settings: read-out: Activity
[47] = tested on: A549; test: Growth inhibition of human A549/ATCC cells assessed as cell growth at 10 uM by sulforhodamine B assay; settings: read-out: Activity
[48] = tested on: HCT-116; test: Growth inhibition of human HCT116 cells assessed as growth inhibition at 10 uM by sulforhodamine B assay; settings: read-out: GI
[49] = tested on: MDA-MB-468; test: Growth inhibition of human MDA-MB-468 cells assessed as cell growth at 10 uM by sulforhodamine B assay; settings: read-out: Activity

## CC(C)=CC(=O)O[C@@H]1CC(C)(C)C[C@H]2C3=CC[C@@H]4[C@@]5(C)CC[C@H](O)C(C)(C)[C@@H]5CC[C@@]4(C)[C@]3(C)CC[C@@]12C(=O)O [Reduced Lantadene B]
[1]
  growth at 10 µM: 92.7%
[2]
  growth at 10 µM: 61.8%
[3]
  inhibition of growth at 10 µM: 13.3%
[4]
  inhibition of growth at 10 µM: 13.5%
[5]
  growth at 10 µM: 73.2%
[6]
  inhibition of growth at 10 µM: 38.5%
[7]
  inhibition of growth at 10 µM: 45.5%
[8]
  growth at 10 µM: 27.2%
[9]
  inhibition of growth at 10 µM: 31.9%
[10]
  inhibition of growth at 10 µM: 40.1%
[11]
  growth at 10 µM: 60.9%
[12]
  growth at 10 µM: 70.2%
[13]
  growth at 10 µM: 70.7%
[14]
  growth at 10 µM: 85.2%
[15]
  inhibition of growth at 10 µM: 60.8%
[16]
  growth at 10 µM: 45.4%
[17]
  inhibition of growth at 10 µM: 14.4%
[18]
  growth at 10 µM: 86.6%
[19]
  growth at 10 µM: 50.3%
[20]
  growth at 10 µM: 59.7%
[21]
  growth at 10 µM: 85.5%
[22]
  inhibition of growth at 10 µM: 53.7%
[23]
  inhibition of growth at 10 µM: 50.7%
[24]
  inhibition of growth at 10 µM: 14.5%
[25]
  inhibition of growth at 10 µM: 38%
[26]
  inhibition of growth at 10 µM: 86%
[27]
  growth at 10 µM: 53.7%
[28]
  inhibition of growth at 10 µM: < 10%
[29]
  inhibition of growth at 10 µM: 54.8%
[30]
  inhibition of growth at 10 µM: 74.9%
[31]
  inhibition of growth at 10 µM: 46.8%
[32]
  inhibition of growth at 10 µM: 26.8%
[33]
  inhibition of growth at 10 µM: 55.4%
[34]
  growth at 10 µM: 27.4%
[35]
  inhibition of growth at 10 µM: 14.8%
[36]
  inhibition of growth at 10 µM: 21.9%
[37]
  inhibition of growth at 10 µM: 76.5%
[38]
  inhibition of growth at 10 µM: 18.7%
[39]
  inhibition of growth at 10 µM: 54.6%
[40]
  growth at 10 µM: 100%
[41]
  growth at 10 µM: 35.6%
[42]
  inhibition of growth at 10 µM: < 10%
[43]
  growth at 10 µM: 53.2%
[44]
  inhibition of growth at 10 µM: 29.8%
[45]
  inhibition of growth at 10 µM: 29.3%
[46]
  growth at 10 µM: 44.6%
[47]
  growth at 10 µM: 23.5%
[48]
  inhibition of growth at 10 µM: 72.8%
[49]
  growth at 10 µM: 113%
